In assay [1] the target is T1, LTRGW1 (Homo sapiens, UniProt Q9NPC1).
T1 sequence (Q9NPC1 1-358): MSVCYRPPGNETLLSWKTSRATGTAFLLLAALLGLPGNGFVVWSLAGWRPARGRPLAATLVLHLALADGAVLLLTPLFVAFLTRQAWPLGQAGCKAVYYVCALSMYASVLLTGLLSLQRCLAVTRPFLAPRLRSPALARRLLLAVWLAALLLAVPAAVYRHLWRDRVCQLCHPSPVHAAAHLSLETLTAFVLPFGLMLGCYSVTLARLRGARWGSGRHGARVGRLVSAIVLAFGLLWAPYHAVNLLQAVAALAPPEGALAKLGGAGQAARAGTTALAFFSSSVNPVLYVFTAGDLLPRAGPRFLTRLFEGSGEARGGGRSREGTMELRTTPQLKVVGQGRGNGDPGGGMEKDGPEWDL
The conditions noted are these: leukotriene binding to LTRGW1; Kamohara et al; cited from earlier work.

Assay [2] has as its system Mock transfected CHO cells. Nature of the assay: FLIPR intracellular calcium response to LTB4, mock transfected CHO cells. The assay is classed as cell-based. The conditions noted are these: LTB4 10^-10 to 10^-7 M, normalised to luciferase. The protocol:
(§1) […] total DNA was transfected into CHO cells using the following transfection mix: 5 μg BLTR, pcDNA3 as needed to keep constant the amount of total DNA used, 1 μg pCMV-luciferase and BLTR-2 at various concentration. Responses to LTB4 (between 10^−10 and 10^−7 M) were measured using a FLIPR assay (Fluorescence Imaging Plate Reader—Molecular Devices) and values were normalised relative to the luciferase reading.

In another assay the target is T2, BLTR (Homo sapiens, UniProt Q15722).
T2 construct: expressed in transfected cells; host or cells: CHO
Nature of the assay: FLIPR intracellular calcium response to LTB4, CHO cells transfected with BLTR. The assay is classed as cell-based. The conditions noted are these: LTB4 10^-10 to 10^-7 M. The procedure:
as §1

Assay [3] concerns LTRGW1. The assay is described as follows: FLIPR intracellular calcium response to LTB4, CHO cells transfected with LTRGW1 alone. The assay is classed as cell-based, human. The procedure: […] Responses to LTB4 (between 10^−10 and 10^−7 M) were measured using a FLIPR assay (Fluorescence Imaging Plate Reader—Molecular Devices) and values were normalised relative to the luciferase reading.

For another assay, the system named is BLTR/LTRGW1. The assay is described as follows: FLIPR intracellular calcium response to LTB4, CHO cells co-transfected with BLTR and LTRGW1. The assay is classed as cell-based, human. The procedure:
as §1

Assay [4] concerns the target T3, BLTR and LTRGW1 co-expressed (Homo sapiens, UniProt Q15722+Q9NPC1).
T3 construct: expressed in transfected cells; host or cells: CHO
Nature of the assay: [3H]LTB4 binding to membranes of transfected CHO cells, scintillation proximity assay. The conditions noted are these: [3H]LTB4, membranes of transfected CHO cells; compared with BLTR or LTRGW1 alone; FIG. 2. The procedure:
CHO cells were transfected with DNA as described in Example 1. [^3H] LTB4 binding to membrane preparations from transfected cells was measured using wheat germ agglutinin beads in a scintillation proximity assay. The assay was carried out in 50: g Hepes 20: g MgCl2 in a total assay volume of 100: g. [^3H] LTB4 was used to measure total binding. [^3H] LTB4 was then displaced with unlabelled LTB4 to measure non-specific binding (NSB). The binding of LTB4 to cells expressing BLTR cells co-expressing BLTR and LTRGW1 and cells expressing LTRGW1 is illustrated in FIG. 2.

Assay [5] concerns the target T1, LTRGW1. The conditions noted are these: Kamohara et al; cited from earlier work.
In assay [6] the target is T1, LTRGW1. The conditions noted are these: Yokomizo et al; cited from earlier work.

“Also recorded” adds a separate entry of the source.

T3 sequence (Q15722 whole entry, one chain of several): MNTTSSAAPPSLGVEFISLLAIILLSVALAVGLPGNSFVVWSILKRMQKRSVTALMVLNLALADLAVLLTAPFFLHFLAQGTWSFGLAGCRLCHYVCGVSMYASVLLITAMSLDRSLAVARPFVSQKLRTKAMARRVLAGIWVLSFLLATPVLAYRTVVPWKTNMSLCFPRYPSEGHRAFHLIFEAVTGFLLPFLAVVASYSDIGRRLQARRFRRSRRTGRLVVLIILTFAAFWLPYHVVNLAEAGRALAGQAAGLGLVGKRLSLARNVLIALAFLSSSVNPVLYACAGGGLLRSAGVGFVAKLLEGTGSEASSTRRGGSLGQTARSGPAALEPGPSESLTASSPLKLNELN
T2 sequence (Q15722 whole entry): as the sequence (Q15722 whole entry, one chain of several) above

Consider `CCCCC/C=C\C[C@H](O)/C=C/C=C/C=C\[C@@H](O)CCCC(=O)O` [12-epi-LTB4], for which the “Forskolin-stimulated intracellular cAMP accumulation” value on LTRGW1 [1] is on record as “inhibition”.

As for `CCCCCCCC[C@H](O)/C=C/C=C\C=C\[C@H](O)CCCC(=O)O` [LTB3], the “Forskolin-stimulated intracellular cAMP accumulation” value on LTRGW1 [1] was “inhibition”.

As for `CCCCC/C=C\C[C@@H](O)/C=C/C=C/C=C\[C@@H](O)CCCC(=O)O` [LTB4], the “Response to LTB4” value in assay [2] is “Inactive”; on BLTR, “Active”; in the assay with LTRGW1 [3] (CHO cells transfected with LTRGW1(274)), “Inactive”; with LTRGW1 [3] (CHO cells transfected with LTRGW1(275)), “Inactive”; in the assay on LTRGW1 [3] (CHO cells transfected with LTRGW1(276)) it was “Inactive”; in the assay with BLTR/LTRGW1 (CHO cells transfected with BLTR/LTRGW1(276), FLIPR), “Active”. Besides, the “Mobilisation of intracellular calcium in response to LTB4” value with LTRGW1 [3] (LTRGW1 expressed alone in CHO cells) is recorded as “does not induce a detectable mobilisation of intracellular calcium”. Moreover, in the assay with BLTR/LTRGW1 (compared with BLTR alone, increase proportional to amount of LTRGW1 in transfection mix, FIG. 1), the “Response of BLTR to LTB4 when LTRGW1 is co-expressed” value is reported as “increased”. The “LTB4 binding to cells co-expressing BLTR and LTRGW1” value in assay [4] is reported as “enhancement”. Also, the “Forskolin-stimulated intracellular cAMP accumulation” value at LTRGW1 [1] is “inhibition”. Also, at LTRGW1 [5], the Chemotaxis result was “induces chemotaxis”. Further, on LTRGW1 [6], the Cellular calcium entry is “increases cellular calcium; also recorded: increases intracellular calcium”.

Regarding `CC/C=C\C/C=C\C[C@@H](O)/C=C/C=C/C=C\[C@@H](O)CCCC(=O)O` [LTB5], on LTRGW1 [1], the “Forskolin-stimulated intracellular cAMP accumulation” value is “inhibition”.
